From DBAASP
In brackets after ≈: the same amount, converted by molar mass.

What was measured:
Test in all cases: ≥ marks a high value that may be exact or a test limit, other limits are often not marked, values filed in µg/mL are converted to µM
Micrococcus luteus A270 = test system: Micrococcus luteus A270
Escherichia coli = test system: Escherichia coli
Listeria innocua = test system: Listeria innocua
Bacillus subtilis 168 HT = test system: Bacillus subtilis 168 HT
Escherichia coli MG1655 = test system: Escherichia coli MG1655
[1] = test system: Staphylococcus aureus ATCC 33591
[2] = test system: Staphylococcus aureus ATCC 700699
[3] = test system: Staphylococcus aureus ATCC 29213
[4] = test system: Pseudomonas aeruginosa ATCC 27853
[5] = test system: Klebsiella pneumoniae ATCC 700603
[6] = test system: Escherichia coli ATCC 25922
[7] = test system: Staphylococcus aureus USA 300
[8] = test system: Bacillus subtilis ATCC 23857
[9] = test system: Staphylococcus epidermidis ATCC 35984
[10] = test system: Bacillus anthracis Sterne 34F2
[11] = test system: Bacillus subtilis ATCC 9372
[12] = test system: Burkholderia thailandensis
[13] = test system: Staphylococcus aureus ATCC 25923
Candida albicans = test system: Candida albicans
[14] = test system: Enterococcus faecalis ATCC 29212
[15] = test system: Staphylococcus epidermidis
Escherichia coli UB1005 = test system: Escherichia coli UB1005
[16] = test system: Pseudomonas aeruginosa H103
[17] = test system: Salmonella enterica serovar Typhimurium
[18] = test system: Staphylococcus aureus ATCC 6538
[19] = test system: Pseudomonas aeruginosa ATCC 15442

Compound: CC(C)C[C@H](NC(=O)[C@H](CO)NC(=O)[C@H](Cc1cnc[nH]1)NC(=O)[C@H](CO)NC(=O)[C@H](CC(C)C)NC(=O)[C@H](CC(C)C)NC(=O)[C@@H](N)CCCCN)C(=O)O [KLLSHSL]
- MIC (Micrococcus luteus A270): ≥ 39.2 µM
- MIC (Escherichia coli): 78.4 µM (≈ 62.5 µg/mL)
- MIC (Listeria innocua): ≥ 39.2 µM

Compound: CSCC[C@H](NC(=O)[C@H](CCCCN)NC(=O)[C@H](CCCCN)NC(=O)[C@H](CC(C)C)NC(=O)[C@H](CC(C)C)NC(=O)[C@H](CCCN=C(N)N)NC(=O)[C@H](CCCN=C(N)N)NC(=O)[C@H](CCCCN)NC(=O)[C@H](C)N)C(=O)N[C@@H](CCCCN)C(=O)O [AKRRLLKKMK]
- MIC (Bacillus subtilis 168 HT): ≥ 101 µM
- MIC (Escherichia coli MG1655): ≥ 101 µM

Compound: CC[C@H](C)[C@H](NC(=O)[C@H](CC(=O)O)NC(=O)[C@H](CCCCN)NC(=O)[C@H](C)NC(=O)[C@H](C)NC(=O)[C@H](C)NC(=O)[C@H](CCCCN)NC(=O)[C@H](CC(C)C)NC(=O)[C@@H](NC(=O)[C@H](CC(=O)O)NC(=O)[C@@H](NC(=O)[C@@H](NC(=O)CN)C(C)C)C(C)C)[C@@H](C)CC)C(=O)N[C@@H](C)C(=O)NCC(=O)N[C@@H](Cc1cnc[nH]1)C(=O)N[C@@H](CC(C)C)C(=O)N[C@@H](C)C(=O)N[C@@H](CO)C(=O)N[C@@H](CCCCN)C(=O)N[C@H](C(=O)N[C@@H](CCSC)C(=O)N[C@@H](CC(N)=O)C(=O)N[C@@H](CCCCN)C(=O)N[C@@H](CC(C)C)C(N)=O)C(C)C [GVVDILKAAAKDIAGHLASKVMNKL]
- MIC [1]: ≥ 100 µM
- MIC [2]: ≥ 100 µM
- MIC [3]: > 100 µM
- MIC [4]: 100 µM (≈ 256 µg/mL)
- MIC [5]: 50 µM (≈ 128 µg/mL)
- MIC [6]: 25 µM (≈ 64.1 µg/mL)

Compound: CC(C)C[C@H](NC(=O)[C@H](Cc1ccccc1)NC(=O)[C@H](CS)NC(=O)[C@@H](NC(=O)[C@H](CC(C)C)NC(=O)[C@H](CCCN=C(N)N)NC(=O)[C@H](Cc1c[nH]c2ccccc12)NC(=O)[C@@H](N)CCCN=C(N)N)C(C)C)C(=O)N[C@@H](CS)C(=O)N[C@@H](CCCN=C(N)N)C(=O)N[C@@H](CCCN=C(N)N)C(=O)N[C@@H](CCCCN)C(=O)N[C@@H](CCCCN)C(=O)N[C@H](C(=O)O)C(C)C [RWRLVCFLCRRKKV]
- MIC (Bacillus subtilis 168 HT): 8.6 µM (≈ 16 µg/mL)
- MIC (Escherichia coli MG1655): 17.2 µM (≈ 32.1 µg/mL)

Compound: CC[C@H](C)[C@H](NC(=O)CNC(=O)[C@@H](N)CCSC)C(=O)N[C@H](C(=O)N[C@@H](C)C(=O)NCC(=O)N[C@H](C(=O)N[C@H](C(=O)N[C@@H](CCCCN)C(=O)N[C@H](C(=O)N[C@H](C(=O)N[C@@H](CCCCN)C(=O)N[C@@H](CO)C(=O)N[C@@H](CC(C)C)C(=O)N[C@H](C(=O)N[C@@H](CCC(=O)O)C(=O)N[C@@H](CCC(N)=O)C(=O)N[C@@H](Cc1ccccc1)C(=O)N[C@H](C(=O)NCC(=O)N[C@@H](CCCCN)C(=O)O)[C@@H](C)O)[C@@H](C)CC)[C@@H](C)CC)C(C)C)[C@@H](C)CC)[C@@H](C)CC)[C@@H](C)CC [MGIIAGIIKVIKSLIEQFTGK]
- MIC [7]: ≥ 64 µM
- MIC [8]: ≥ 128 µM
- MIC [9]: ≥ 64 µM
- MIC [6]: > 128 µM

Compound: CC[C@H](C)[C@H](NC(=O)CNC(=O)[C@@H](NC(=O)[C@H](CCCCN)NC(=O)[C@H](CCCCN)NC(=O)CNC(=O)[C@@H](NC(=O)[C@H](CCCCN)NC(=O)[C@H](Cc1c[nH]c2ccccc12)NC(=O)[C@H](CCCCN)NC(=O)[C@H](CCSC)NC(C)=O)[C@@H](C)CC)[C@@H](C)CC)C(=O)NCC(=O)N[C@@H](CCCCN)C(=O)N[C@@H](Cc1ccccc1)C(=O)N[C@@H](CC(C)C)C(=O)N[C@@H](Cc1cnc[nH]1)C(=O)N[C@@H](CO)C(=O)N[C@@H](C)C(=O)N[C@@H](CCCCN)C(=O)N[C@@H](CCCCN)C(=O)N[C@@H](Cc1ccccc1)C(=O)N[C@@H](CC(N)=O)C(N)=O [MKWKIGKKIGIGKFLHSAKKFN]
- MIC [10]: ≥ 100 µM
- MIC [11]: ≥ 100 µM
- MIC [12]: ≥ 50 µM

Compound: CC(C)C[C@H](NC(=O)[C@@H](N)Cc1ccccc1)C(=O)N[C@@H](CCCCN)C(=O)N[C@@H](CCCCN)C(=O)N[C@@H](C)C(=O)N[C@@H](CCCCN)C(=O)N[C@@H](CCCCN)C(=O)N[C@@H](Cc1ccccc1)C(=O)NCC(=O)N[C@@H](CCCCN)C(=O)N[C@@H](C)C(=O)N[C@@H](Cc1ccccc1)C(N)=O [FLKKAKKFGKAF]
- MIC [1]: ≥ 362 µM
- MIC [9]: ≥ 181 µM
- MIC [4]: 45.3 µM (≈ 64 µg/mL)
- MIC [13]: > 362 µM

Compound: CC[C@H](C)[C@H](NC(=O)[C@@H](N)CCCN=C(N)N)C(=O)N[C@@H](CCCN=C(N)N)C(=O)N[C@@H](CCCN=C(N)N)C(=O)N[C@@H](Cc1c[nH]c2ccccc12)C(=O)N[C@@H](CCCCN)C(=O)N[C@@H](Cc1ccccc1)C(=O)N[C@@H](CCCN=C(N)N)C(=O)N[C@@H](Cc1c[nH]c2ccccc12)C(=O)O [RIRRWKFRW]
- MIC (Candida albicans): 21.3 µM (≈ 29.9 µg/mL)
- MIC [14]: 5.3 µM (≈ 7.44 µg/mL)
- MIC [15]: 1.3 µM (≈ 1.82 µg/mL)
- MIC (Escherichia coli UB1005): 5.3 µM (≈ 7.44 µg/mL)
- MIC [16]: ≥ 42.6 µM
- MIC [17]: 5.3 µM (≈ 7.44 µg/mL)
- MIC [13]: 1.3 µM (≈ 1.82 µg/mL)

Compound: CSCC[C@H](NC(=O)[C@H](Cc1ccccc1)NC(=O)CNC(=O)CNC(=O)[C@H](Cc1ccc(O)cc1)NC(=O)[C@H](CCCN=C(N)N)NC(=O)[C@H](CCCCN)NC(=O)[C@H](CCC(=O)O)NC(=O)[C@H](CCSC)NC(=O)[C@H](CCC(=O)O)NC(=O)[C@@H]1CCCN1C(=O)[C@@H]1CCCN1C(=O)[C@H](CCC(=O)O)NC(=O)[C@H](CCCCN)NC(=O)[C@H](CO)NC(=O)[C@H](Cc1ccc(O)cc1)NC(=O)[C@H](CO)NC(=O)[C@H](CCC(=O)O)NC(=O)CNC(=O)[C@H](CCC(=O)O)NC(=O)[C@H](CCC(=O)O)NC(=O)[C@H](CCC(=O)O)NC(=O)[C@H](CO)NC(=O)[C@@H]1CCCN1C(=O)[C@H](CC(C)C)NC(=O)[C@@H]1CCCN1C(=O)[C@H](CCC(=O)O)NC(=O)[C@H](C)NC(=O)[C@H](Cc1ccccc1)NC(C)=O)C(N)=O [FAEPLPSEEEGESYSKEPPEMEKRYGGFM]
- MIC [10]: ≥ 100 µM
- MIC [11]: ≥ 100 µM
- MIC [12]: ≥ 50 µM

Compound: CC[C@H](C)[C@H](NC(=O)[C@H](C)NC(=O)[C@@H](NC(=O)[C@@H](NC(=O)CN)C(C)C)C(C)C)C(=O)N[C@@H](CC(C)C)C(=O)N[C@@H](CCCCN)C(=O)NCC(=O)N[C@@H](C)C(=O)N[C@@H](C)C(=O)N[C@@H](CCCCN)C(=O)N[C@@H](CC(=O)O)C(=O)N[C@H](C(=O)N[C@@H](C)C(=O)NCC(=O)N[C@@H](Cc1cnc[nH]1)C(=O)N[C@@H](CC(C)C)C(=O)N[C@@H](C)C(=O)N[C@@H](CO)C(=O)N[C@@H](CCCCN)C(=O)N[C@H](C(=O)N[C@@H](CCSC)C(=O)N[C@@H](CC(N)=O)C(=O)N[C@@H](CCCCN)C(=O)N[C@@H](CC(C)C)C(N)=O)C(C)C)[C@@H](C)CC [GVVAILKGAAKDIAGHLASKVMNKL]
- MIC [1]: ≥ 100 µM
- MIC [2]: ≥ 100 µM
- MIC [3]: > 100 µM
- MIC [4]: > 100 µM
- MIC [5]: 50 µM (≈ 125 µg/mL)
- MIC [6]: 50 µM (≈ 125 µg/mL)

Compound: CC(C)C[C@H](NC(=O)[C@@H](N)CCCN=C(N)N)C(=O)N[C@@H](Cc1c[nH]c2ccccc12)C(=O)N[C@@H](Cc1c[nH]c2ccccc12)C(=O)N[C@@H](Cc1c[nH]c2ccccc12)C(=O)N[C@@H](Cc1c[nH]c2ccccc12)C(=O)N[C@@H](CCCN=C(N)N)C(=O)N[C@@H](CCCN=C(N)N)C(=O)N[C@@H](CCCCN)C(=O)O [RLWWWWRRK]
- MIC (Candida albicans): 4.1 µM (≈ 6.04 µg/mL)
- MIC [14]: 4.1 µM (≈ 6.04 µg/mL)
- MIC [15]: 0.5 µM (≈ 0.736 µg/mL)
- MIC (Escherichia coli UB1005): 4.1 µM (≈ 6.04 µg/mL)
- MIC [16]: 16.6 µM (≈ 24.4 µg/mL)
- MIC [17]: 8.3 µM (≈ 12.2 µg/mL)
- MIC [13]: 2.1 µM (≈ 3.09 µg/mL)

Compound: CC(C)C[C@H](NC(=O)[C@H](C)NC(=O)[C@H](Cc1cnc[nH]1)NC(=O)[C@H](Cc1cnc[nH]1)NC(=O)CNC(=O)[C@H](CC(C)C)NC(=O)[C@@H](N)Cc1cnc[nH]1)C(=O)N[C@@H](CC(=O)O)C(=O)N[C@@H](Cc1cnc[nH]1)C(=O)N[C@@H](CC(C)C)C(=O)N[C@@H](CC(C)C)C(=O)N[C@@H](CCCCN)C(=O)O [HLGHHALDHLLK]
- MIC [14]: > 8990 µM
- MIC [18]: 8.99 mM (≈ 12500 µg/mL)
- MIC [19]: ≥ 8.99 mM
- MIC [3]: > 8990 µM
- MIC [9]: ≥ 8990 µM
- MIC [13]: 8990 µM (≈ 12500 µg/mL)
